Experimental data as given in patent US20240199605A1, “SMALL MOLECULAR INHIBITORS OF NF-kB INDUCING KINASE” (Janssen Pharmaceutica NV, priority 2019, published 2024).

Assays:
[1] = target: recombinant human NF-kappaB-inducing kinase (NIK/MAP3K14) (Homo sapiens (Human), UniProt Q99558); test: Inhibition of auto-phosphorylation of recombinant human NIK/MAP3K14 (AlphaScreen); assay type: biochemical; conditions: NIK auto-phosphorylation, 5 μM ATP, 1 nM NIK, 2 h at 25° C.; average of values
Experimental: Inhibition of auto-phosphorylation of recombinant human NF-kappaB-inducing kinase (NIK/MAP3K14) activity (AlphaScreen®)
NIK/MAP3K14 auto-phosphorylation activity was measured using the AlphaScreen® (αscreen) format (Perkin Elmer). All compounds tested were dissolved in dimethyl sulfoxide (DMSO) and further dilutions were made in assay buffer. The final DMSO concentration was 0.7% (v/v) in assays. The assay buffer was 50 mM Tris pH 7.5 containing 1 mM EGTA (ethylene glycol tetraacetic acid), 1 mM DTT (dithiothreitol), 0.1 mM Na3VO4, 5 mM MgCl2, and 0.01% Tween® 20. The assays were carried out in 384 well Proxiplates (Perkin Elmer). The incubations consisted of the compound, 5 μM Adenosine-5′-triphosphate (ATP), and 1 nM NIK/MAP3K14. Incubations were initiated by the addition of GST-tagged NIK/MAP3K14 enzyme, carried out for 2 h at 25° C. and terminated by addition of stop buffer containing anti-phospho-IKK Ser176/180 antibody. Protein A Acceptor and Glutathione-Donor beads were added before reading using an EnVision® Multilabel Plate Reader (Perkin Elmer). […] IC50's were determined by fitting a sigmoidal curve to % inhibition of control versus Log10 compound concentration.

[2] = system: p-IKKα levels in L363 (NIK translocated multiple myeloma) cells; test: Effect of compounds on p-IKKα levels in L363 cells (AlphaLISA SureFire Ultra); assay type: cell-based, human; conditions: Homo sapiens, L-363, 6 h, BAFF stimulated, MG132, 6 h, average of values, read-out: Assay 2 IC50
Experimental: Effect of Compounds on p-IKKα Levels in L363 (NIK Translocated Multiple Myeloma) Cells
All compounds tested were dissolved and serially diluted in DMSO, 1:3 dilution for 11 points in an Echo compatible plate. 100% DMSO was added to columns 12 and 24 of the plate to serve as high and low signal controls. This compound plate was used to spot 20 nL of compound or DMSO into a Greiner 384 well TC plate (781080). The final DMSO concentration was 0.3% (v/v) in cell assays. Human L363 cells (ATCC) were cultured in RPM11640 medium supplemented with GlutaMax, non-essential amino acids, sodium pyruvate and 10% fetal bovine serum. Cells were routinely maintained at densities of […] at 37° C. in a humidified 5% CO2 atmosphere incubator. Cells were passaged twice a week splitting back to obtain the low density. The day before the assay, cells were washed twice in HBSS (Hank's Balanced Salt Solution), resuspended in Dulbecco's Modified Eagle Medium (DMEM)+0.5% IgG and protease free BSA (Jackson Immuno Research Laboratories), +/−250 ng/ml recombinant human B-cell activating factor (BAFF/BLyS/TNFSF13B) and incubated overnight at 37° C. in a humidified 5% CO2 atmosphere (bulk stimulation with or without BAFF). The next day, the cell concentration was adjusted to 1×10^7 cells/ml in DMEM+/−250 ng/ml BAFF+/−10 μM MG132 and plated at 10 μl/well into compound or DMSO spotted 384 well TC plates. Seeded cells were incubated at 37° C. in a humidified 5% CO2 atmosphere for 6 h. After 6 h, the plates were removed from the incubator and cell lysis was achieved by the addition of 2.5 μl 5× lysis buffer containing protease and phosphatase inhibitors, followed by shaking on a plate shaker at room temperature for 15 min. At the end of this incubation, lysed cells were sequentially treated and incubated with acceptor and donor bead mixes according to the manufacturer's protocol for a 1 plate/2-incubation suspension cell assay (AlphaLISA SureFire Ultra p-IKKa (Ser 176/180) Assay Kit (Perkin Elmer). Plates were read using an EnVision® Multilabel Plate Reader (Perkin Elmer). Within an experiment, a concentration response curve for each compound was run in duplicate. The signal obtained in the test wells was normalized using high signal (BAFF stimulated cells, DMSO, MG132) and low signal (unstimulated cells, DMSO) controls. To determine the IC50, a sigmoidal curve was fitted to the plot of % inhibition versus Log10 compound concentration.

Chain of recombinant human NF-kappaB-inducing kinase (NIK/MAP3K14) (Q99558 whole entry): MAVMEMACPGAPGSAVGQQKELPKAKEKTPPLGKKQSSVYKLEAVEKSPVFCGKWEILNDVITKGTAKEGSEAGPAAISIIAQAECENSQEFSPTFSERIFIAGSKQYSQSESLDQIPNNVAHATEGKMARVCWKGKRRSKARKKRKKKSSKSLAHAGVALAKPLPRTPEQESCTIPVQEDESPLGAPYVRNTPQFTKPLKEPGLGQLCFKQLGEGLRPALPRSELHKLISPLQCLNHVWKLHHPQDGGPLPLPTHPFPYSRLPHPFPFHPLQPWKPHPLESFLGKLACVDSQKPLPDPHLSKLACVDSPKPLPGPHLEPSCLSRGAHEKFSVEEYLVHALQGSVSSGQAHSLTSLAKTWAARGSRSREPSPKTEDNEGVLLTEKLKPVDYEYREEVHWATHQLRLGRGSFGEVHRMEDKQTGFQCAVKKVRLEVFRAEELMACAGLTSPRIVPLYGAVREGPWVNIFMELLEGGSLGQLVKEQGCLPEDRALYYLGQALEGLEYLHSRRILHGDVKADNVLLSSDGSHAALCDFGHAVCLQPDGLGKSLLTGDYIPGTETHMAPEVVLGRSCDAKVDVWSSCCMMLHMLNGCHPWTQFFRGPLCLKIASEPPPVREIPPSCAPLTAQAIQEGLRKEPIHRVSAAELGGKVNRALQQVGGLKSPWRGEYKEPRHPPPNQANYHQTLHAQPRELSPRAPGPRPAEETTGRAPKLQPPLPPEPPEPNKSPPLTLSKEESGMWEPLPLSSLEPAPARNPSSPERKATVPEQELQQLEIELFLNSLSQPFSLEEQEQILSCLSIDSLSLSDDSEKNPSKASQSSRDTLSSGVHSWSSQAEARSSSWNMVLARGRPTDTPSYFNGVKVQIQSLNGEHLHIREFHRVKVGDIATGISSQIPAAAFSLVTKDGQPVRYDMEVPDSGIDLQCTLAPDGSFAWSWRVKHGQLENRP

Row | SMILES | IC50 [1] [nM] | IC50 [2] [nM]
1 | Cc1nnc([C@](C)(O)C#Cc2cccc(-c3ccc4ncnc(N)c4c3)c2)o1 [Example 106, (R)-4-[3-(4-Aminoquinazolin-6-yl)phenyl]-2-(5-methyl-1,3,4-oxadiazol-2-yl)but-3-yn-2-ol] | 14 | 1450
2 | Cc1nc(N)c2nc(-c3cccc(C#C[C@@](C)(O)c4nnc(C)o4)c3)ccc2n1 [Example 213, (R)-4-(3-(4-Amino-2-methylpyrido[3,2-d]pyrimidin-6-yl)phenyl)-2-(5-methyl-1,3,4-oxadiazol-2-yl)but-3-yn-2-ol] | 18 | 1080
3 | Nc1nccc2cnc(-c3cccc(C#CC4(O)CCN(CC(F)(F)F)C4=O)c3)nc12 (stereo in doubt) [Example 73, (S)-3-[2-[3-(8-Aminopyrido[3,4-d]pyrimidin-2-yl)phenyl]ethynyl]-3-hydroxy-1-(2,2,2-trifluoroethyl)pyrrolidin-2-one] | 1730 | > 5000
4 | C[C@@](O)(C#Cc1cccc(-c2ccc3ncnc(N)c3c2)c1)c1nccs1 [Example 105, (R)-4-[3-(4-Aminoquinazolin-6-yl)phenyl]-2-thiazol-2-yl-but-3-yn-2-ol] | 0.6 | 64
5 | CN1CC[C@@](O)(C#Cc2cccc(-c3ncc4c(-c5cn[nH]c5)cnc(N)c4n3)c2)C1=O [Example 124, (R)-3-[2-[3-[8-Amino-5-(1H-pyrazol-4-yl)pyrido[3,4-d]pyrimidin-2-yl]phenyl]ethynyl]-3-hydroxy-1-methyl-pyrrolidin-2-one] | ≤ 0.5 | 7.7
6 | Cc1nnc([C@](C)(O)C#Cc2cccc(-c3ccc4ccnc(N)c4n3)c2)o1 [Example 88, (R)-4-[3-(8-Amino-1,7-naphthyridin-2-yl)phenyl]-2-(5-methyl-1,3,4-oxadiazol-2-yl)but-3-yn-2-ol] | 4.7 | 400

Results, then the molecule that gave them:

Row | IC50 [1] [nM] | IC50 [2] [nM] | SMILES
7 | 1.4 | 81 | CN1CC[C@@](O)(C#Cc2cccc(-c3ccc4nc(C(F)(F)F)nc(N)c4n3)c2)C1=O [Example 176, (R)-3-((3-(4-Amino-2-(trifluoromethyl)pyrido[3,2-d]pyrimidin-6-yl)phenyl)ethynyl)-3-hydroxy-1-methylpyrrolidin-2-one]
8 | 46 | 730 | CC1(C)CC[C@](O)(C#Cc2cccc(-c3ccc4ncnc(N)c4n3)c2)C1=O [Example 132, (S)-2-[2-[3-(4-Aminopyrido[3,2-d]pyrimidin-6-yl)phenyl]ethynyl]-2-hydroxy-5,5-dimethyl-cyclopentanone]
9 | 21 | 1060 | CN1CC[C@](C#Cc2cccc(-c3ccc4ncnc(N)c4n3)c2)(C(F)F)C1=O [Example 204, (R)-3-((3-(4-Aminopyrido[3,2-d]pyrimidin-6-yl)phenyl)ethynyl)-3-(difluoromethyl)-1-methylpyrrolidin-2-one]
10 | 680 | 3700 | Cc1nc(N)c2nc(-c3cccc(C#C[C@@]4(O)C[C@H](C)N(C)C4=O)c3)ccc2n1 [Example 266, (3S,5S)-3-((3-(4-Amino-2-methylpyrido[3,2-d]pyrimidin-6-yl)phenyl)ethynyl)-3-hydroxy-1,5-dimethylpyrrolidin-2-one]
11 | 390 | 2460 | Cc1nc(N)c2nc(-c3cccc(C#C[C@]4(O)C(=O)N(C)C[C@H]4C)c3)ccc2n1 (stereo in doubt) [Example 294, (3S,4R*)-3-((3-(4-Amino-2-methylpyrido[3,2-d]pyrimidin-6-yl)phenyl)ethynyl)-3-hydroxy-1,4-dimethylpyrrolidin-2-one]
12 | ≤ 0.5 | 18 | Cc1nc(N)c2nc(-c3cccc(C#C[C@]4(O)CCN(C)C4=O)c3)ncc2n1 [Example 14, (R)-3-((3-(8-Amino-6-methylpyrimido[5,4-d]pyrimidin-2-yl)phenyl)ethynyl)-3-hydroxy-1-methylpyrrolidin-2-one]
13 | ≤ 0.5 | 5.5 | Cc1nc(-c2cccc(C#C[C@]3(O)CCn4ccnc43)c2)nc2c(N)nccc12 [Example 84, (R)-7-((3-(8-Amino-4-methylpyrido[3,4-d]pyrimidin-2-yl)phenyl)ethynyl)-6,7-dihydro-5H-pyrrolo[1,2-a]imidazol-7-ol]
